Test results from PubChem BioAssay AID1963965 (Molecular Pharmacology Branch, DTP, NCI, 2024).

System: 996289-038-R-J1-PDC spheroid viability
Assay: Anticancer human tumor 996289-038-R-J1-PDC patient-derived colon adenocarcinoma cell line growth inhibition [PI3K]
Details: spheroids with HUVEC and MSC; for IC50: curve of first compound; for viability, T/C: stronger effect = lower value
Procedure, shortened: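 Spheroid viability read-out. Co-cultures contained the tumor line plus HUVEC and human MSCs. Each agent was paired with a PI3K inhibitor (inavolisib, alpelisib, duvelisib, copanlisib) across half-log dilutions starting at clinical Cmax, or at 10 microM when Cmax was unknown.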

[1] = second compound 0.0316 µM, first compound 0.0316 µM
[2] = second compound 0.0316 µM, first compound 0.1 µM
[3] = second compound 0.0316 µM, first compound 0.316 µM
[4] = second compound 0.0316 µM, first compound 1 µM
[5] = second compound 0.0316 µM, first compound 3.16 µM
[6] = second compound 0.0316 µM, first compound 10 µM
[7] = second compound 0.1 µM, first compound 0.0316 µM
[8] = second compound 0.1 µM, first compound 0.1 µM
[9] = second compound 0.1 µM, first compound 0.316 µM
[10] = second compound 0.1 µM, first compound 1 µM
[11] = second compound 0.1 µM, first compound 3.16 µM
[12] = second compound 0.1 µM, first compound 10 µM
[13] = second compound 0.316 µM, first compound 0.0316 µM
[14] = second compound 0.316 µM, first compound 0.1 µM
[15] = second compound 0.316 µM, first compound 0.316 µM
[16] = second compound 0.316 µM, first compound 1 µM
[17] = second compound 0.316 µM, first compound 3.16 µM
[18] = second compound 0.316 µM, first compound 10 µM
[19] = second compound 1 µM, first compound 0.0316 µM
[20] = second compound 1 µM, first compound 0.1 µM
[21] = second compound 1 µM, first compound 0.316 µM
[22] = second compound 1 µM, first compound 1 µM
[23] = second compound 1 µM, first compound 3.16 µM
[24] = second compound 1 µM, first compound 10 µM
[25] = second compound 3.16 µM, first compound 0.0316 µM
[26] = second compound 3.16 µM, first compound 0.1 µM
[27] = second compound 3.16 µM, first compound 0.316 µM
[28] = second compound 3.16 µM, first compound 1 µM
[29] = second compound 3.16 µM, first compound 3.16 µM
[30] = second compound 3.16 µM, first compound 10 µM
[31] = second compound 10 µM, first compound 0.0316 µM
[32] = second compound 10 µM, first compound 0.1 µM
[33] = second compound 10 µM, first compound 0.316 µM
[34] = second compound 10 µM, first compound 1 µM
[35] = second compound 10 µM, first compound 3.16 µM
[36] = second compound 10 µM, first compound 10 µM
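Also: spheroids exposed to compounds for seven days before viability read.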
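For viability, T/C in this document: luminescence used as a proxy for viable cell amount; percent viability relative to DMSO vehicle control as 100%.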

## C=CC(=O)N1CCN(c2nc(=O)n(-c3c(C)ccnc3C(C)C)c3nc(-c4c(O)cccc4F)c(F)cc23)C(C)C1 (stereo unspecified) + Cc1nc(NC(=O)N2CCCC2C(N)=O)sc1-c1ccnc(C(C)(C)C(F)(F)F)c1
Second compound 0.0316 µM
  IC50: > 10 µM
Second compound 0.1 µM
  IC50: > 10 µM
Second compound 0.316 µM
  IC50: > 10 µM
Second compound 1 µM
  IC50: > 10 µM
Second compound 3.16 µM
  IC50: > 10 µM
Second compound 10 µM
  IC50: 0.0454 µM
[1]
  viability, T/C: 91.4%
[2]
  viability, T/C: 107%
[3]
  viability, T/C: 111%
[4]
  viability, T/C: 116%
[5]
  viability, T/C: 115%
[6]
  viability, T/C: 114%
[7]
  viability, T/C: 87.5%
[8]
  viability, T/C: 90.4%
[9]
  viability, T/C: 90.5%
[10]
  viability, T/C: 96.7%
[11]
  viability, T/C: 122%
[12]
  viability, T/C: 93.5%
[13]
  viability, T/C: 79.8%
[14]
  viability, T/C: 95.2%
[15]
  viability, T/C: 94.7%
[16]
  viability, T/C: 83.6%
[17]
  viability, T/C: 97.5%
[18]
  viability, T/C: 89.9%
[19]
  viability, T/C: 88.6%
[20]
  viability, T/C: 85.8%
[21]
  viability, T/C: 75.6%
[22]
  viability, T/C: 87.5%
[23]
  viability, T/C: 77.6%
[24]
  viability, T/C: 80.1%
[25]
  viability, T/C: 59.5%
[26]
  viability, T/C: 71.7%
[27]
  viability, T/C: 74.7%
[28]
  viability, T/C: 61.6%
[29]
  viability, T/C: 64.4%
[30]
  viability, T/C: 59.5%
[31]
  viability, T/C: 50.5%
[32]
  viability, T/C: 50.7%
[33]
  viability, T/C: 43.2%
[34]
  viability, T/C: 40.6%
[35]
  viability, T/C: 48.8%
[36]
  viability, T/C: 47.4%

## CC(Cn1ccc(-c2ccc(C#N)c(Cl)c2)n1)NC(=O)c1cc(C(C)O)[nH]n1 (stereo unspecified) + Cc1nc(NC(=O)N2CCCC2C(N)=O)sc1-c1ccnc(C(C)(C)C(F)(F)F)c1
Second compound 0.0316 µM
  IC50: > 10 µM
Second compound 0.1 µM
  IC50: > 10 µM
Second compound 0.316 µM
  IC50: > 10 µM
Second compound 1 µM
  IC50: > 10 µM
Second compound 3.16 µM
  IC50: > 10 µM
Second compound 10 µM
  IC50: < 0.0316 µM
[1]
  viability, T/C: 84%
[2]
  viability, T/C: 86.7%
[3]
  viability, T/C: 95.2%
[4]
  viability, T/C: 109%
[5]
  viability, T/C: 98.9%
[6]
  viability, T/C: 91.8%
[7]
  viability, T/C: 96.6%
[8]
  viability, T/C: 89.7%
[9]
  viability, T/C: 97.8%
[10]
  viability, T/C: 94.4%
[11]
  viability, T/C: 92.4%
[12]
  viability, T/C: 92.3%
[13]
  viability, T/C: 95.8%
[14]
  viability, T/C: 85.3%
[15]
  viability, T/C: 85%
[16]
  viability, T/C: 77.3%
[17]
  viability, T/C: 78.3%
[18]
  viability, T/C: 85.3%
[19]
  viability, T/C: 68.8%
[20]
  viability, T/C: 82.4%
[21]
  viability, T/C: 80.9%
[22]
  viability, T/C: 89.9%
[23]
  viability, T/C: 77%
[24]
  viability, T/C: 69.3%
[25]
  viability, T/C: 58.5%
[26]
  viability, T/C: 55.8%
[27]
  viability, T/C: 66.6%
[28]
  viability, T/C: 66.7%
[29]
  viability, T/C: 72.7%
[30]
  viability, T/C: 50.9%
[31]
  viability, T/C: 49%
[32]
  viability, T/C: 43.1%
[33]
  viability, T/C: 48.9%
[34]
  viability, T/C: 42.3%
[35]
  viability, T/C: 43.1%
[36]
  viability, T/C: 46.4%

## Cn1nccc1Nc1nccc(-c2ccn(C(CO)c3ccc(Cl)c(F)c3)c(=O)c2)n1 (stereo unspecified) + Cc1nc(NC(=O)N2CCCC2C(N)=O)sc1-c1ccnc(C(C)(C)C(F)(F)F)c1
Second compound 0.0316 µM
  IC50: > 10 µM
Second compound 0.1 µM
  IC50: > 10 µM
Second compound 0.316 µM
  IC50: > 10 µM
Second compound 1 µM
  IC50: 3.53 µM
Second compound 3.16 µM
  IC50: 3.56 µM
Second compound 10 µM
  IC50: < 0.0316 µM
[1]
  viability, T/C: 106%
[2]
  viability, T/C: 114%
[3]
  viability, T/C: 108%
[4]
  viability, T/C: 85.8%
[5]
  viability, T/C: 97%
[6]
  viability, T/C: 55.2%
[7]
  viability, T/C: 107%
[8]
  viability, T/C: 96.8%
[9]
  viability, T/C: 101%
[10]
  viability, T/C: 85.6%
[11]
  viability, T/C: 70.2%
[12]
  viability, T/C: 52.1%
[13]
  viability, T/C: 92.5%
[14]
  viability, T/C: 84.5%
[15]
  viability, T/C: 101%
[16]
  viability, T/C: 72.7%
[17]
  viability, T/C: 61.4%
[18]
  viability, T/C: 49.5%
[19]
  viability, T/C: 76.8%
[20]
  viability, T/C: 90%
[21]
  viability, T/C: 72.5%
[22]
  viability, T/C: 62%
[23]
  viability, T/C: 54.1%
[24]
  viability, T/C: 38.8%
[25]
  viability, T/C: 54.8%
[26]
  viability, T/C: 57.4%
[27]
  viability, T/C: 63%
[28]
  viability, T/C: 54.9%
[29]
  viability, T/C: 52.9%
[30]
  viability, T/C: 27.1%
[31]
  viability, T/C: 44.7%
[32]
  viability, T/C: 40.6%
[33]
  viability, T/C: 57.9%
[34]
  viability, T/C: 34.7%
[35]
  viability, T/C: 29.4%
[36]
  viability, T/C: 15.7%
